Assays:
Pv11 cells = details: previous study; cited from earlier work
Orco-Or47a [1] = assay: Response after rehydration with cycloheximide treatment, Orco-Or47a stable expression cell line; type: cell-based, Drosophila melanogaster
Experimental: 7. Confirmation that exogenous membrane protein responses in Orco-Or47a stable expression cell lines immediately after rehydration are not due to de novo protein synthesis. To confirm that the membrane protein response of the Orco-Or47a stable expression cell line immediately after rehydration was not due to de novo protein synthesis, cells were treated with cycloheximide (CHX, a protein synthesis inhibitor).
A previous study reported that 0.35 mM of cycloheximide is able to inhibit protein production in Pv11 cells. Therefore, also in this experiment, cycloheximide was dissolved in IPL-41 medium so that the cycloheximide concentration was 0.35 mM. An IPL-41 medium with 0.01 mM, 0.07 mM and 0.7 mM cycloheximide was also prepared. […] One hour after rehydration and 24 hours after rehydration, the same operation as in 3.6 above was performed, and the fluorescence intensity was measured and analyzed. […] FIG. 7A and FIG. 7B are graphs showing changes in fluorescence intensity of the Orco-Or47a stable expression cell line response to VUAA1 and pentyl acetate, respectively, one hour after drying and rehydration. FIGS. 7C and 7D are graphs showing changes in fluorescence intensity, respectively, in response to VUAA1 and pentyl acetate of Orco-Or47a stable expression cell lines 24 hours after drying and rehydration.

[2] = test system: GCaMP6f stable expression cell line; assay: Functionality of GCaMP6f with ionomycin; type: cell-based, Polypedilum vanderplanki; details: ionomycin final concentration 1 μM, DMSO 1%; DMSO negative control showed no increase
Experimental: 3.2 The functionality of GCaMP6f. The functionality of GCaMP6f in the resulting cell lines was evaluated using Ionomycin (Ionomycin; Fujifilm Wako Pure Chemical) to increase the intracellular concentration of calcium ions to provide functional confirmation of exogenous proteins in the GCaMP6f stable-expressing cell line. Ionomycin was dissolved in dimethyl sulfoxide (DMSO; Fujifilm Wako Pure Chemical Industries, Ltd.), adjusted to a final DMSO concentration of 1% and an ionomycin final concentration of 1 μM in IP1-41 medium, and added to the cell solution. As a negative control, DMSO was adjusted to a final concentration of 1% in IP 1-41 medium and added to the cell solution. Bright-field images and fluorescence images (ex: 470/40 nm; em: 525/50 nm) of the cells before and after solution addition were taken (all-in-one fluorescence microscope BZ-X710, Keyence). […] Therefore, it was confirmed that the expressed GCaMP6f functioned in the obtained stable expression cell line. For statistical analysis of fluorescence intensity, one-way ANOVA was performed using Prism8 (GraphPad), followed by Tukey's multiple comparison test as a post-hoc test, […]

Orco-Or47a [3] = molecular target: T1, Orco-Or47a (Drosophila melanogaster, UniProt P81921+Q9VNB5); assay: Exogenous membrane protein function before drying and after drying-rehydration, Orco-Or47a stable expression cell line; type: cell-based; parameters: remnant residues; expressed in transfected cells; host or cells: Pv11 cells (Polypedilum vanderplanki), CRIS-PITCh knock-in at the Pv.00443 locus downstream of the 121 promoter, Zeocin selection and single-cell sorting; details: before drying
T1 sequence (Q9VNB5 1-486): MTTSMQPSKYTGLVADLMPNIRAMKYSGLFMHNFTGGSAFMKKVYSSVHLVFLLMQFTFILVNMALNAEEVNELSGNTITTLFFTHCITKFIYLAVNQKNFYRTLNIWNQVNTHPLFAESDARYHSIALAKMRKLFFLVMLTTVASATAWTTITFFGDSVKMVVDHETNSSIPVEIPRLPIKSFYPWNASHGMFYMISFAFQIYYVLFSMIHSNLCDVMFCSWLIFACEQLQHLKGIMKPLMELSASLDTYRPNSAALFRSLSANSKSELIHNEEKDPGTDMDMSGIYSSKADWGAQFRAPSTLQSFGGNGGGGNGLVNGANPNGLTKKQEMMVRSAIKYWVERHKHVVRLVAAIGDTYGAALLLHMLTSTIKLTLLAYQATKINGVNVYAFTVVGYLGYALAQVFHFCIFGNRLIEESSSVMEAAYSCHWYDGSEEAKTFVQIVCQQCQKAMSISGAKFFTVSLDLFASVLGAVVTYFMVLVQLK
T1 sequence (P81921 1-385): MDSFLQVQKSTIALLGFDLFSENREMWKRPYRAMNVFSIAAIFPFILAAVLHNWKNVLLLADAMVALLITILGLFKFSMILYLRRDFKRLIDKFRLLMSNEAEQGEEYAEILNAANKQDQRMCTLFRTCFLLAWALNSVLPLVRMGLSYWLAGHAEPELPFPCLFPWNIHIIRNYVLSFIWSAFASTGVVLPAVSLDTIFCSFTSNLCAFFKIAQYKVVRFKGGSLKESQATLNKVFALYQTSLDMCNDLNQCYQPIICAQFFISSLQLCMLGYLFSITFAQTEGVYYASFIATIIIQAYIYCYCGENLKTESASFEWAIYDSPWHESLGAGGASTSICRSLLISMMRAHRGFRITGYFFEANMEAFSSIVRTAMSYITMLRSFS
Experimental: To assess the drought tolerance of the cell lines, the cells were dried according to the following protocol. 4×10^7 Pv11-GCaMP6f stable expression cell lines were centrifuged at 700 g for 3 minutes and the supernatant removed. The precipitated cells were suspended in a 600 mM trehalose mix of 600 mM trehalose and IPL-41 medium at a ratio of 9:1, transferred to a 2 ml flask, and incubated at 25° C. for 48 hours. After 48 hours, the obtained cells were centrifuged at 700 g for 3 minutes and the supernatant was removed. The sedimented cells were suspended in 400 μl of 600 mM trebalose mix, and 40 μl were dropped onto a 35 mm dish. The 35 mm dish was dried for 10 days under conditions of 25° C. and humidity of 10% or less.
6. Assessment of exogenous membrane protein function after drying-rehydration. Using the Orco stable expression cell line and Orco-Or47a stable expression cell line, in order to assess the function of exogenous membrane proteins before drying and after 1 hour of rehydration after drying, fluorescence intensity generated in response to stimulation with VUAA1 (Orco agonist) or pentyl acetate (ligand of Or47a) was measured in the same manner as in 3.2 above.
The fluorescence intensity was digitized from the photograph, and ΔF/F was calculated according to the following formula:
Where the summation Σi=1^n is over the n cells in the image, Fi,after means the fluorescence intensity of the cell i after adding the ligand solution, and Fi,0 means the fluorescence intensity of the cell i before adding the ligand solution.
Specifically, a fluorescence image was taken under the condition in which the excitation wavelength/fluorescence wavelength was 488 nm/525 nm. In the fluorescence intensity quantification, the cells were identified in the photographed image, and the fluorescence intensity (F) was measured for each time. The initial values of fluorescence intensity (F0) were subtracted from the measured fluorescence intensity at each time to obtain the amount of change in fluorescence (ΔF), which was then normalized by dividing by the initial value of fluorescence intensity (F0) to obtain (Δ F/F0). A number of cells n were selected from the captured image, ΔF/F0 were produced for each, and the average value (including standard deviation, SD) of the results was graphed. For example, 25 cells were selected from the captured image, ΔF/F0 for each were produced, and the averaged results (including SD) were graphed. […] The Orco-Or47a stable expression cell line before drying responded to the Orco agonist (VUAA1) and the specific ligand of Or47a, pentyl acetate.

C[C@@H]1C[C@@H]([C@H](O)CC2CC(=O)NC(=O)C2)C(=O)[C@@H](C)C1 [cycloheximide]
concentration able to inhibit protein production (Pv11 cells): 0.35 mM
effect of cycloheximide on function of the exogenous membrane protein (Orco-Or47a [1]; 1 hour after rehydration, cycloheximide 0.01, 0.07, 0.35, 0.7 mM, response to VUAA1 or pentyl acetate): no significant difference
effect of CHX treatment on response (Orco-Or47a [1]; 24 hours after rehydration, response to VUAA1 and pentyl acetate): less responsive

C[C@H](CCC(=O)O)C[C@H](C)C[C@H](C)C(=O)/C=C(\O)[C@H](C)C[C@H](C)C/C=C/[C@@H](C)[C@@H](O)[C@@H](C)[C@@H](O)C[C@@H]1CC[C@@](C)([C@H]2CC[C@@](C)([C@@H](C)O)O2)O1 [ionomycin, Ionomycin]
fluorescence after addition [2]: stronger fluorescence than before the addition

CC(=O)c1ccccc1 [acetophenone]
response as change in fluorescence intensity (ΔF/F0) (Orco-Or47a [3]): did not react
